Test results as given in patent US20220096487A1 (priority 2019, published 2022).

Experiments:
MATE1 = MATE1 (Homo sapiens, UniProt Q96FL8); assay: In vitro inhibition of MATE1; type: in vitro ADME
L5178Y mouse lymphoma = assay: Mouse lymphoma assay
[1] = Carcinogenicity studies in rats; conditions: two-year study, doses up to 50 mg/kg, highest dose tested
CYP3A4 = assay: In vitro induction of CYP3A4; type: in vitro ADME
[2] = Dolutegravir rat pre/post-natal development study; type: in vivo; conditions: relative to human exposure at the RHD
Excerpt: In the rat pre/post-natal development study, decreased body weight of the developing offspring was observed during lactation at a maternally toxic dose (approximately 32 times human exposure at the RHD).

CYP2C19 = CYP2C19 (Homo sapiens, UniProt P33261); assay: In vitro inhibition of CYP2C19; type: in vitro ADME; conditions: did not inhibit
Sequence of CYP2C19 (P33261 whole entry): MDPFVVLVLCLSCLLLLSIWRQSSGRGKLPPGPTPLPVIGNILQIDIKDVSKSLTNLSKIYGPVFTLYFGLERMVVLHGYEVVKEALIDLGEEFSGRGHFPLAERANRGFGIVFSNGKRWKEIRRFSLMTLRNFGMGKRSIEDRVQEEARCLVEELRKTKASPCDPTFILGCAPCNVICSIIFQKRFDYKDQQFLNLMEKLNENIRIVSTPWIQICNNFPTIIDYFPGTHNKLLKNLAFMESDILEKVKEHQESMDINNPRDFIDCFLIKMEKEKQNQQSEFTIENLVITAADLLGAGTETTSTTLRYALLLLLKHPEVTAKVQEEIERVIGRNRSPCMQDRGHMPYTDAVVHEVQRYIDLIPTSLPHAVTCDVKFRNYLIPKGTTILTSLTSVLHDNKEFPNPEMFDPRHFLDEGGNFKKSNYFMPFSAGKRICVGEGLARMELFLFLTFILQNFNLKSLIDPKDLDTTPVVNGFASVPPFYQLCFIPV

P-gp [3] = biological target: T1, P-gp (Homo sapiens, UniProt P08183); assay: In vitro inhibition of P-gp; type: in vitro ADME; conditions: did not inhibit
T1 sequence (P08183 whole entry): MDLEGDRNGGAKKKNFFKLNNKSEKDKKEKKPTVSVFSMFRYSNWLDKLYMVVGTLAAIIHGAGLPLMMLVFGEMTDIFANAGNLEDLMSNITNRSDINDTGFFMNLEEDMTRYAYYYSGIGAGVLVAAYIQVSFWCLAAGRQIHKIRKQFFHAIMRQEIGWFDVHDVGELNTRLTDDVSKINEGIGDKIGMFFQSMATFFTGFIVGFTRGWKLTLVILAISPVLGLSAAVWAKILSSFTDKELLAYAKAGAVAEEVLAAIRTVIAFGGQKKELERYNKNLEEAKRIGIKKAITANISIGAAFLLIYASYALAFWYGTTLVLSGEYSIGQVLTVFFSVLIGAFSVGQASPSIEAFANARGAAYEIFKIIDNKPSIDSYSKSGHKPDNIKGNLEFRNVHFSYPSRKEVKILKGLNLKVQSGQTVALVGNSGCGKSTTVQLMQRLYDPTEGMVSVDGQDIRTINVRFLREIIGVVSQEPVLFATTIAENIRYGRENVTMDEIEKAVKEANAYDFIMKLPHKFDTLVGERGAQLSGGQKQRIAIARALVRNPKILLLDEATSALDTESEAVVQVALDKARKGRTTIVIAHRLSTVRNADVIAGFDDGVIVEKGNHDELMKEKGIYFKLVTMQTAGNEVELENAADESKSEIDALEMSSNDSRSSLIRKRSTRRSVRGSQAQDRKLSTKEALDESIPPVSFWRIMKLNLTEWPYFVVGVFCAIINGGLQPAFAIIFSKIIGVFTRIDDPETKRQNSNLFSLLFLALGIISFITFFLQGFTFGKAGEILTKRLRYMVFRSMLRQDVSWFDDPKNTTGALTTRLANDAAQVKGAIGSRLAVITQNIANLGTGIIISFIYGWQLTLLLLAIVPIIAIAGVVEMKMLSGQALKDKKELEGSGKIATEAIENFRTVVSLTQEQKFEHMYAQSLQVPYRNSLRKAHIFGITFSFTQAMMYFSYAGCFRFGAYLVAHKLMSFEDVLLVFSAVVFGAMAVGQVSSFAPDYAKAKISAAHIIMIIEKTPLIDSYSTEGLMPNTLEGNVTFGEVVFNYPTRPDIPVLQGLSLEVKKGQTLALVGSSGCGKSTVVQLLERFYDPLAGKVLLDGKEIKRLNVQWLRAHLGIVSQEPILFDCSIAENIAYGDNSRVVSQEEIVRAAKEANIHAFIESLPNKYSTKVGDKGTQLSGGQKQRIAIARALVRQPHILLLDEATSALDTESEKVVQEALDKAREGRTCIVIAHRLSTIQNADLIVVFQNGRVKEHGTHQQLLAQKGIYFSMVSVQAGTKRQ

[4] = Dolutegravir embryo-fetal development study in pregnant rabbits; type: in vivo, rabbit; conditions: oral up to 1,000 mg/kg daily, gestation Days 6 to 18
[5] = Established and other potentially significant drug interactions for dolutegravir (Table 5); type: in vivo, human
Excerpt: These recommendations are based on either drug interaction trials or predicted interactions due to the expected magnitude of interaction and potential for serious adverse events or loss of efficacy [see Contraindications (4), Clinical Pharmacology (12.3)].

CYP2C8 = CYP2C8 (Homo sapiens, UniProt P10632); assay: In vitro inhibition of CYP2C8; type: in vitro ADME; conditions: did not inhibit
Sequence of CYP2C8 (P10632 whole entry): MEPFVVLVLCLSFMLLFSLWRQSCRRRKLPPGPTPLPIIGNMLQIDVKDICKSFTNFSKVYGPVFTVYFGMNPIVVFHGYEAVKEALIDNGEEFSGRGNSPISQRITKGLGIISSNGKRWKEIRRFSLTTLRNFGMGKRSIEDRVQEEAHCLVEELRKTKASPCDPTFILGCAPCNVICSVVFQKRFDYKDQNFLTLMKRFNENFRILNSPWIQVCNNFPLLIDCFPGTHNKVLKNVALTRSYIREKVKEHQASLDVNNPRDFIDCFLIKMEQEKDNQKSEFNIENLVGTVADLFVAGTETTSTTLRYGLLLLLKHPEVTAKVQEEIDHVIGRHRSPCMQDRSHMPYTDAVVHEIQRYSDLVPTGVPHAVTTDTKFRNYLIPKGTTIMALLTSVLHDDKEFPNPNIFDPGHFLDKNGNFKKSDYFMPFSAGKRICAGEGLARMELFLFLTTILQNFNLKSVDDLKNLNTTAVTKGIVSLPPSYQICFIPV

OATP1B3 [6] = biological target: T2, OATP1B3 (Homo sapiens, UniProt Q9NPD5); assay: In vitro inhibition of OATP1B3; type: in vitro ADME; conditions: did not inhibit
T2 sequence (Q9NPD5 whole entry): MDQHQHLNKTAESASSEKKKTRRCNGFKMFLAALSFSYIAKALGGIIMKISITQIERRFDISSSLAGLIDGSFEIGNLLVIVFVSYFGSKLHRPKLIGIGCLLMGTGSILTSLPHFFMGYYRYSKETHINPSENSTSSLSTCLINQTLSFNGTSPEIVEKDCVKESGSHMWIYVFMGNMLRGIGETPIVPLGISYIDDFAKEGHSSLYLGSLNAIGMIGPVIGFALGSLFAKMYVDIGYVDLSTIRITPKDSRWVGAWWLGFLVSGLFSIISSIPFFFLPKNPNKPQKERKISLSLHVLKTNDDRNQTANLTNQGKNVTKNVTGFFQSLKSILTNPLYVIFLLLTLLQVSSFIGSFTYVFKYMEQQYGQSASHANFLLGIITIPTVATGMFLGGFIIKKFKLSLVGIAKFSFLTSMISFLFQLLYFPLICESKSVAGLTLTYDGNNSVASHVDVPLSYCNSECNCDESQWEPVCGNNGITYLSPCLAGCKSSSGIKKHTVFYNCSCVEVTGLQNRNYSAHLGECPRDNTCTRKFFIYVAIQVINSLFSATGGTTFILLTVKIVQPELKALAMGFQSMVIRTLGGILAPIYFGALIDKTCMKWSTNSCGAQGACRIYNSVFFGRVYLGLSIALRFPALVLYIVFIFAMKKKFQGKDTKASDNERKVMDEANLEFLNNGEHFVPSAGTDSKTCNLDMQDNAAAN

OAT1 and OAT3 = assay: In vivo effect on OAT1 and OAT3 substrates
[7] = Hypersensitivity reactions in Phase 3 clinical trials of dolutegravir; type: in vivo, human; conditions: subjects receiving dolutegravir in Phase 3 clinical trials
Excerpt: Discontinue the combination immediately if signs or symptoms of hypersensitivity reactions develop (including, but not limited to, severe rash or rash accompanied by fever, general malaise, fatigue, muscle or joint aches, blisters or peeling of the skin, oral blisters or lesions, conjunctivitis, facial edema, hepatitis, eosinophilia, angioedema, difficulty breathing). Clinical status, including liver aminotransferases, should be monitored and appropriate therapy initiated.

[8] = biological target: organic anion transporter polypeptide (OATP)1B1 (Homo sapiens, UniProt Q9Y6L6); assay: In vitro inhibition of OATP1B1; type: in vitro ADME; conditions: did not inhibit
Sequence of organic anion transporter polypeptide (OATP)1B1 (Q9Y6L6 whole entry): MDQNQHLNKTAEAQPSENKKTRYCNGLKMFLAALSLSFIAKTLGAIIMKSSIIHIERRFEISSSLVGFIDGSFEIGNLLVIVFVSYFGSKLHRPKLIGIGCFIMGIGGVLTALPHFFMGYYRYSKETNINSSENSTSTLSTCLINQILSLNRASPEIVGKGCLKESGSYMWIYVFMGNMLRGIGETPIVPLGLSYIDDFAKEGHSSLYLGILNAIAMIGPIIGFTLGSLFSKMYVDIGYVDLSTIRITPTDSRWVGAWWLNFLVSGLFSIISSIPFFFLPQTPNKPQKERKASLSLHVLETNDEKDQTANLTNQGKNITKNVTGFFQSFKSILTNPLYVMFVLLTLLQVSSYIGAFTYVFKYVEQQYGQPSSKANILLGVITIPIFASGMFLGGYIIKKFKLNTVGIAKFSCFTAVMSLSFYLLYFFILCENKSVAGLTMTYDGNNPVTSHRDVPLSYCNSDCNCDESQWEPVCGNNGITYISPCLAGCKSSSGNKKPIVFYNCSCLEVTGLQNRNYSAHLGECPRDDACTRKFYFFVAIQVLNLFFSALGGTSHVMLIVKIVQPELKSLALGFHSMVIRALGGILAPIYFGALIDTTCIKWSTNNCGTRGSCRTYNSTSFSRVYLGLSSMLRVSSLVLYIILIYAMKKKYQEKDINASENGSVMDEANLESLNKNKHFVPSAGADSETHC

CYP2A6 = CYP2A6 (Homo sapiens, UniProt P11509); assay: In vitro inhibition of CYP2A6; type: in vitro ADME; conditions: did not inhibit
renal OCT2 = renal OCT2 (Homo sapiens, UniProt O15244); assay: In vitro inhibition of renal OCT2; type: in vitro ADME
Sequence of renal OCT2 (O15244 whole entry): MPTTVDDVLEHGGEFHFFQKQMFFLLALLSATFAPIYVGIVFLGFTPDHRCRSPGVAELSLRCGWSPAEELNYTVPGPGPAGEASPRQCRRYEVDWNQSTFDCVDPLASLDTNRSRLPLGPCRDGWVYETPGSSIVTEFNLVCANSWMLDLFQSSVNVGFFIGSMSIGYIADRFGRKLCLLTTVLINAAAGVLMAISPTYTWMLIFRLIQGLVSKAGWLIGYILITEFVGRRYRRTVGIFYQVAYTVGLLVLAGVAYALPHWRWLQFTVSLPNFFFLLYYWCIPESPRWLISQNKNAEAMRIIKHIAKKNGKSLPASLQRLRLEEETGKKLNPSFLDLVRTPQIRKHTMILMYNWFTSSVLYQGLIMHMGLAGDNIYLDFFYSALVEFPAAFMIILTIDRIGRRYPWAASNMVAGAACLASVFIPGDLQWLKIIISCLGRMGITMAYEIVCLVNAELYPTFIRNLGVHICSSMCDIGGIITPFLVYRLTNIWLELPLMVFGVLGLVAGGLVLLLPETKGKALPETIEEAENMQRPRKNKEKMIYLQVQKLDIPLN

MRP4 = MRP4 (Homo sapiens, UniProt O15439); assay: In vitro inhibition of MRP4; type: in vitro ADME; conditions: did not inhibit
[9] = Plasma protein binding in vitro; type: in vitro ADME; conditions: human, human plasma proteins, read-out: % Bound to human plasma proteins (converted)
BCRP [10] = biological target: T3, BCRP (Homo sapiens, UniProt Q9UNQ0); assay: In vitro inhibition of BCRP; type: in vitro ADME; conditions: did not inhibit
T3 sequence (Q9UNQ0 1-655): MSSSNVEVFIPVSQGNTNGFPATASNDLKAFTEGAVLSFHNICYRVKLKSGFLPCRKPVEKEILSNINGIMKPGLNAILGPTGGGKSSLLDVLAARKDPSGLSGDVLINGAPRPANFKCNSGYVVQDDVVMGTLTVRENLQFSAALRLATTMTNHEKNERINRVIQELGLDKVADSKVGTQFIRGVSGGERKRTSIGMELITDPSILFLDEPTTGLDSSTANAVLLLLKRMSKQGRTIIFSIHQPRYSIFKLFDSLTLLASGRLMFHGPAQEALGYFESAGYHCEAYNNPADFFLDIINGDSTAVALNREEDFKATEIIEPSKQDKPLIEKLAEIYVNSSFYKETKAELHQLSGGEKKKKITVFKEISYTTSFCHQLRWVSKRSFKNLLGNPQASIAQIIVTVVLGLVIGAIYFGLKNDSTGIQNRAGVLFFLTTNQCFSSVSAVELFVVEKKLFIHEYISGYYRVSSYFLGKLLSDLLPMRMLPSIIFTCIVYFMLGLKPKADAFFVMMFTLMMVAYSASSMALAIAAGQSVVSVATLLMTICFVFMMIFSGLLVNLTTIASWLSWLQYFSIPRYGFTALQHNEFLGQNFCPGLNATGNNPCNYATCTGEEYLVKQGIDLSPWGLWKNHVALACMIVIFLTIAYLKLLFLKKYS

BCRP [11] = biological target: T3, BCRP; assay: In vitro substrate assessment, BCRP; type: in vitro ADME
OCT1 = OCT1 (Homo sapiens, UniProt O15245); assay: In vitro inhibition of OCT1; type: in vitro ADME; conditions: did not inhibit
[12] = Population pharmacokinetic analyses; type: in vivo, human
OATP1B3 [13] = biological target: T2, OATP1B3; assay: In vitro substrate assessment, OATP1B3; type: in vitro ADME
OATP1B1 = OATP1B1 (Homo sapiens, UniProt Q9Y6L6); assay: In vitro substrate assessment, OATP1B1; type: in vitro ADME
Sequence of OATP1B1 (Q9Y6L6 whole entry): as the sequence (Q9Y6L6 whole entry) above

P-gp [14] = biological target: T1, P-gp; assay: In vitro substrate assessment, P-gp; type: in vitro ADME
[15] = Bacterial reverse mutation assay
CYP1A2 = assay: In vitro induction of CYP1A2; type: in vitro ADME

Sequence of MATE1 (Q96FL8 whole entry): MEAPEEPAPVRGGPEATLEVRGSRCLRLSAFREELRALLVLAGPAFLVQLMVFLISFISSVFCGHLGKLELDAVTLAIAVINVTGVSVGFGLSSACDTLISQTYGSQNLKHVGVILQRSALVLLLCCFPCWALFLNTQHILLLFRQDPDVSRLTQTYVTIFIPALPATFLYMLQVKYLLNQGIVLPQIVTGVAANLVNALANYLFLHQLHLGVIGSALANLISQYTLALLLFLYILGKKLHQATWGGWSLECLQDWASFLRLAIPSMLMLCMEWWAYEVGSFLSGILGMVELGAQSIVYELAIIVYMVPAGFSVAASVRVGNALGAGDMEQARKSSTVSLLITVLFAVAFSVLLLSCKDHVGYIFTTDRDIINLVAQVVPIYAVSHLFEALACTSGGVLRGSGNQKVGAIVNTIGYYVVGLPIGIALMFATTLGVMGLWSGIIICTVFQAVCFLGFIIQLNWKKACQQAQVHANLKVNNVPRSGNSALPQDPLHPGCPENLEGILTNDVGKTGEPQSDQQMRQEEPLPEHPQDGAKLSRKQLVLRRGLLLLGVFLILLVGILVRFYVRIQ

## C[C@@H]1CCO[C@H]2Cn3cc(C(=O)NCc4ccc(F)cc4F)c(=O)c(O)c3C(=O)N12 [Dolutegravir, dolutegravir]
MATE1
  IC50: 6.34 µM
L5178Y mouse lymphoma
  Genotoxicity/mutagenicity, mouse lymphoma assay: not genotoxic
[1]
  AUC exposure multiple of human (50 mg once daily) with no increases in drug-related neoplasms: 17 times
CYP3A4
  Induction of CYP3A4: did not induce
[2]
  Exposure multiple of maternally toxic dose with decreased body weight of developing offspring during lactation: approximately 32 times
CYP2C19
  IC50: > 50 µM
P-gp [3]
  IC50: > 50 µM
[4]
  Effects on embryo-fetal development: No adverse effects
[5]; concomitant Carbamazepine
  Effect on Concentration of dolutegravir: ↓Dolutegravir
[5]; concomitant Oxcarbazepine, Phenytoin, Phenobarbital, trial or predicted interaction
  Effect on Concentration of dolutegravir: ↓Dolutegravir
[5]; concomitant Rifampin
  Effect on Concentration of dolutegravir: ↓Dolutegravir
[5]; concomitant St. John's wort (Hypericum perforatum), trial or predicted interaction
  Effect on Concentration of dolutegravir: ↓Dolutegravir
[5]; concomitant medications containing polyvalent cations (antacids, laxatives, sucralfate, buffered medications)
  Effect on Concentration of dolutegravir: ↓Dolutegravir
[5]; concomitant oral calcium and iron supplements, including multivitamins
  Effect on Concentration of dolutegravir: ↓Dolutegravir
CYP2C8
  IC50: > 50 µM
OATP1B3 [6]
  IC50: > 50 µM
OAT1 and OAT3
  Effect on plasma concentrations of tenofovir or para-amino hippurate, substrates of OAT1 and OAT3: did not alter
[7]
  Hypersensitivity reactions, % of subjects: < 1%
[8]
  IC50: > 50 µM
CYP2A6
  IC50: > 50 µM
Renal OCT2
  IC50: 1.93 µM
MRP4
  IC50: > 50 µM
[9]
  fraction unbound: ~0.01
BCRP [10]
  IC50: > 50 µM
BCRP [11]
  Substrate of BCRP: substrate
OCT1
  IC50: > 50 µM
[12]; in vivo
  Effect of age on pharmacokinetics: no clinically relevant effect
[12]; studies with the individual components
  Effect of gender and race on pharmacokinetics: no clinically relevant effect
OATP1B3 [13]
  Substrate of OATP1B3: not a substrate
OATP1B1
  Substrate of OATP1B1: not a substrate
P-gp [14]
  Substrate of P-gp: substrate
[15]
  Genotoxicity, bacterial reverse mutation assay: not genotoxic
CYP1A2
  Induction of CYP1A2: did not induce
